Patent US11047012B2, “Method for detecting the risk and prognosis of adult-onset Still's disease” (Taichung Veterans General Hospital, priority 2018, dated 2021)

Experiments:
[1] = test system: peripheral blood mononuclear cells derived from the patients with AOSD; assay: TLR ligand stimulation of peripheral blood mononuclear cells, intracellular miR-134 by QRT-PCR; type: cell-based, human
Experimental: (§1) The miRNA expressions in a sample were detected using the TaqMan MicroRNA detection kit (Applied Biosystems, Thermo Fisher Scientific, USA) and QRT-PCR was performed in the StepOne Plus real-time PCR system. Small nuclear RNA (hereinafter referred to as RUN6) and synthetic cel-miR-39 (hereinafter referred to as cel-miR-39 cel-miR-39) were respectively used as an internal control gene in cells and plasma. The multiple expression of the target gene was obtained by calculating the average expression of the target gene relative to the internal control gene in the sample by comparative threshold cycle (Ct) method, and evaluated by 2^−ΔΔCt, where ΔΔCt is the (CtmiRNAsgene−CtRnu6/cel-miR-39) of the patient from which the average (CtmiRNAs gene−CtRnu6/cel-miR-39) of the internal control gene is subtracted.
(§2) Peripheral blood mononuclear cells, human monocyte cell line U937 (ATCC CRL1593, hereinafter referred to as U937 cell) and THP-1 cells (ATCC TIB-202) isolated from the subject were respectively cultured in RPMI medium 1640 (Gibco, Thermo Fisher Scientific, USA) supplemented with 10% fetal bovine serum, 1× non-essential amino acids, 100 unit/ml penicillin and 100 unit/ml streptomycin in 5% carbon dioxide at 37° C.
Peripheral blood mononuclear cells (5×10^5 cells) derived from the subjects were stimulated with different TLR ligands. Finally, the intracellular expression level of miR-134 was measured with the TaqMan MicroRNA test kit.
Following the process as described in Example 8, the intracellular expressions of miR-134 and IL-18BP mRNA in the TLR3 ligand-stimulated peripheral blood mononuclear cells derived from patients with AOSD and healthy subjects were detected. The correlation between the IL-18BP and IL-18 expressions and the miR-134 expression was analyzed.

[2] = test system: THP-1 cells; assay: poly (I:C) stimulation of THP-1 cells, miR-134 expression; type: cell-based, human; details: 24 hours after stimulation, FIG. 5B
Experimental: as §1, §2
Further, the THP-1 cells were treated with the TLR3 ligand poly (I:C).

Substance: polyriboinosinic:polyribocytidylic acid [poly(I:C)]
- miR-134 expression level in the cells ([1]; PBMC from patients with AOSD, TLR3 ligand poly(I:C) 50 μg/ml, FIG. 5A): 3.81±0.09 folds
- expression level of miR-134 ([1]; TLR3 ligand-stimulated PBMC from patients with AOSD, FIG. 10A): increased
- expression level of IL-18BP mRNA ([1]; TLR3 ligand-stimulated PBMC from patients with AOSD, FIG. 10B): reduced
- expression of miR-134 (highest value) [2]: 1.92±0.11 folds
